Measurements from patent publication US12605407B2, “Methods to induce terminal differentiation in stem cells by interfering with DNA replication, methods of inducing pancreatic differentiation, and differentiated cells obtained thereof” (priority 2018, dated 2026).

Assays:
[1] = tested on: NSG mice; assay: Transplantation of treated islet-like clusters, human C-peptide in mouse serum; format: in vivo
Procedure: 8-10 weeks old male immuno-compromised mice (NOD.Cg-Prkdcscid Il2rgtm1Wj1/SzJ (NSG) from Jackson laboratories, Cat. No. 005557) were used for transplantation. For intra leg muscle transplantation, 1-2 million cells were collected and settled in tube with 50 μl Matrigel. All animal protocols were approved by the Institutional Animal Care and Use Committee in Columbia University.
(§1) The human C-peptide levels in mouse serum were measured every two weeks in the fed state. Intraperitoneal glucose tolerance test was performed by fasting overnight and injecting 2 g/kg D-glucose solution at 2 weeks after mouse beta cells were ablated with one high dose (150 mg/kg) Streptozocin (Cat. No. S0130-1G, Sigma-Aldrich). Blood was collected in heparin-coated tube at fed state, fasting and 30 min after glucose injection. Plasma were collected by centrifuging tubes at 2000 g for 15 minutes at 4° C. The supernatants were collected for C-peptide and insulin detection with Mercodia M-Plex™ ARRAY Chemiluminescent Mercodia Beta Kit. Blood glucose levels was measured at fed state, fasting and every 30 minutes after glucose injection for 2 hours.
To test the ability of aphidicolin treated islet-like clusters to regulate blood glucose levels, treated and untreated cells were grafted into NSG mice on day 27 of differentiation. After transplantation in the immunodeficient mice, the mice transplanted with APH treated cells developed higher human C-peptide starting from 2 weeks after engraftment compared to that of control mice (FIG. 7A). The increase became significant from 6 weeks after transplantation (FIG. 7B).

[2] = tested on: pancreatic progenitors; assay: Beta cell differentiation from human pluripotent stem cells, flow cytometry of C-peptide and NKX6.1 positive cells; format: cell-based
Procedure: (§2) Beta cells differentiated from human pluripotent stem cell lines as described in Example 2 (Sui et al., 2018b). Indicated compounds that function as cell cycle inhibitors were added individually from day 15 to day 27 with concentration listed below:
The DNA replication inhibitors used in this study: 0.1 μM, 0.5 μM and 1 μM Aphidicolin (A0781, Sigma-Aldrich); 2.5 μM Cisplatin (232120, EMD Millipore); 100 μM Ciprofloxacin (S2027, Selleck Chemicals); 10 μM Pyridostatin (S7444, Selleck Chemicals); 10 μM E2F Inhibitor (324461, EMD Millipore); 0.05 μM A485 (6387, Tocris); 2 μM RL5a (SML2187, Sigma-Aldrich); and 2 μM Etoposide (E55500, Research Products International). Indicated compounds were added individually from day 15 to day 27 with indicated concentration.
The beta cell clusters were dissociated using TrypLE™ Express into single cells. Cells were fixed with 4% PFA for 10 min and followed by permeabilization at −20° C. with cold methanol for 10 min. Primary antibodies were added at a dilution of 1:100 in autoMACs Rinsing Solution (Cat. No. 130-091-222, Miltenyi Biotec) containing 0.5% BSA at 4° C. for 1 hour. Secondary antibodies were added at a dilution of 1:500 at room temperature for 1 hour. The cells were filtered with BD Falcon 12×75 mm tube with cell strainer cap (Cat. No. 352235, BD) and subsequently analyzed by flow cytometer. Data were analyzed using Flowjo software. Negative controls were performed by only adding secondary antibodies.
Aphidicolin (APH), a DNA polymerase inhibitor, was used to inhibit DNA replication (Koundrioukoff et al., 2013). […] The insulin expressing cells were evenly distributed in the islet-like clusters with high percentage indicated by the expression of GFP, whereas some parts of the clusters in control remained GFP negative (FIG. 1D).

[3] = tested on: iPSC lines 1018E and 1023A; assay: Beta cell differentiation in iPSC lines with different differentiation potentials, C-peptide positive cells; format: cell-based, human
Procedure: Human pluripotent stem cells were cultured and maintained in feeder-free plates with stemflex medium as described. Three cell lines were involved in this study as shown in Table 2: MEL1 is human embryonic stem cell line; 1023A is a human induced pluripotent stem cell line reprogrammed from a skin fibroblast biopsied of a healthy control; and 1018E is a human induced pluripotent stem cell line reprogrammed from a skin fibroblast biopsied from a type 1 diabetes patient. All human subjects research was reviewed and approved by the Columbia University Institutional Review Board, and the Columbia University Embryonic Stem Cell Committee.
as §2
The beta cell clusters were dissociated using TrypLE™ Express into single cells. Cells were fixed with 4% PFA for 10 min and followed by permeabilization at −20° C. with cold methanol for 10 min. […] The cells were filtered with BD Falcon 12×75 mm tube with cell strainer cap (Cat. No. 352235, BD) and subsequently analyzed by flow cytometer. Data were analyzed using Flowjo software. […]

[4] = tested on: STZ-treated mice; assay: Protection from diabetes after ablation of mouse beta cells by streptozotocin, glucose tolerance test; format: in vivo
Procedure: as §1
The ability of APH treated cells to protect mice from diabetes was determined after eliminating endogenous mouse beta cells by streptozotocin (STZ). STZ ablates mouse beta cells but is not toxic to human beta cells at the concentrations used. After STZ treatment, the blood glucose levels were monitored and grafted beta cells were challenged with high glucose to check their function. The blood glucose levels remained in the normal range over time in 3 out of 4 mice (FIG. 7E). Mice were tolerant to glucose and normalized blood glucose levels within 15 min of glucose injection (FIG. 7F). The secretion of human C-peptide and insulin decreased after fasting and increased after glucose injection (FIG. 7G).

[5] = APH added d15-d20, d20-d27 or d15-d27, read at day 27, versus control

With `C[C@@]1(CO)[C@H](O)CC[C@@]2(C)[C@H]1CC[C@H]1C[C@@H]3C[C@@]12CC[C@]3(O)CO` [APH, Aphidicolin] the “secretion of human C-peptide in mice” value ([1]; after glucose injection) was “increased”, the “increase of human C-peptide versus control mice, significance” value ([1]; from 6 weeks after transplantation) was “significant” and the “human C-peptide compared to control mice” value ([1]; mice transplanted with APH treated cells, starting from 2 weeks after engraftment) was “higher”. The “secretion of human C-peptide in mice” value ([1]; when mice were fasted) was “downregulated”, the “variability of beta cell differentiation” value [2] was “reduced” and the “percentage of c-peptide and NKX6.1 positive cells, comparison of concentrations” value ([2]; 1 μM, d15-d27, compared with 0.1 μM and 0.5 μM) was “highest percentage”. The “proportion of C-peptide and NKX6.1 dual positive cells” value [2, 5] was “increased”, the “proportion of C-peptide positive cells” value [2, 5] was “increased” and the “differentiation toward C-peptide and NKX6.1 positive cells, comparison of treatment windows” value ([2]; APH added from day 15 to day 27) was “most effective”. The “C-peptide positive cells in cultures” value ([2]; all n=12 independent differentiation experiments) was “more than 50%”, the “effectiveness to induce differentiation of pancreatic progenitors to C-peptide positive cells, comparison within panel” value ([2]; day 27) was “most effective” and the “percentage of C-peptide positive cells” value ([3]; both cell lines 1018E and 1023A, after APH treatment versus control) was “significantly upregulated”. The “average percentage of C-peptide positive cells” value ([3]; cell line 1018E (differentiates poorly), after APH treatment) was 38%, the “mice whose blood glucose levels remained in the normal range over time” value ([4]; after STZ treatment, mice transplanted with APH treated cells) was 3 out of 4 and the “secretion of human C-peptide and insulin” value ([4]; after fasting) was “decreased”. For the same molecule, the “secretion of human C-peptide and insulin” value ([4]; after glucose injection) was “increased” and the “time to normalized blood glucose levels after glucose injection” value ([4]; glucose tolerance test, STZ-treated mice) was ≤ 15 min.
